How the values were obtained:
[1] = biological target: T1, Brd4-BD2 L387A,E438C (BromoCatch) (Homo sapiens, UniProt O60885, L387A/E438C); assay: intact protein LC-MS covalent adduct; DSF; type: binding
T1 construct: Brd4-BD2 (351–459)

Brd4-BD2 L387A,M442C = Brd4-BD2 L387A,M442C (Homo sapiens, UniProt O60885, L387A/M442C)
[2] = biological target: T2, Brd4-BD2 L387A,E438C (BromoCatch) (Homo sapiens, UniProt O60885, E438C/L387A); assay: biochemical
[3] = biological target: T2, Brd4-BD2 L387A,E438C (BromoCatch); assay: competition FP kinetics (kinact/KI); intact protein MS; DSF ΔTm +[…] °C; streptavidin pull-down; type: binding; design: Brd4-BD2; settings: read-out: kinact_KI

Question: Which “intact protein LC-MS covalent adduct; DSF” value [1] does the source give for CC[C@@H](C(=O)OC)[C@@H]1N=C(c2ccc(NC(=O)CCl)cc2)c2c(sc(C)c2C)-n2c(C)nnc21 [MR112] here?
Answer: Its value is “para chloroacetamide (MR112), vinyl sulfonamide (MR121) and acrylamide (MR116) performed as the best combinations”.

Question: C=CC(=O)Nc1ccc(C2=N[C@@H]([C@@H](CC)C(=O)OC)c3nnc(C)n3-c3sc(C)c(C)c32)cc1 [MR116] was tested. Which “intact protein LC-MS covalent adduct; DSF” value (Brd4-BD2 L387A,M442C) did it give?
Answer: Its value is “(acrylamide, chloroacetamide, vinyl sulfonamide and epoxide) showed covalent modification of both cysteine-containing mutants”.

Question: What about the Ki [2] of the same compound?
Answer: The Ki was 6.8 nM.

Question: How did the “intact protein LC-MS covalent adduct; DSF” value [1] turn out when CC[C@@H](C(=O)OC)[C@@H]1N=C(c2cccc(NC(=O)CCl)c2)c2c(sc(C)c2C)-n2c(C)nnc21 [MR118] was run?
Answer: Its value is “the chloroacetamides MR112 and MR118 demonstrated a slight improvement in potency”.

Question: With C=CC(=O)Nc1cccc(C2=N[C@@H]([C@@H](CC)C(=O)OC)c3nnc(C)n3-c3sc(C)c(C)c32)c1 [MR119] as the compound, how does the “intact protein LC-MS covalent adduct; DSF” value [1] read?
Answer: The value was “Brd4-BD2^L387A,E438C exhibited excellent reactivity towards both meta and para electrophilic ligands”.

Question: How did the “intact protein LC-MS covalent adduct; DSF” value [1] turn out when C=CS(=O)(=O)Nc1ccc(C2=N[C@@H]([C@@H](CC)C(=O)OC)c3nnc(C)n3-c3sc(C)c(C)c32)cc1 [MR121] was run?
Answer: Its value is “vinyl sulfonamide (MR121) and acrylamide (MR116) performed as the best combinations, providing the highest percentage of covalent engagement”.

Question: How did the kinact/KI [3] turn out when C=CC(=O)Nc1ccc(C2=N[C@@H]([C@@H](CC)C(=O)NCCOCCOCCOCCOCCNC(=O)CCCC[C@@H]3SC[C@@H]4NC(=O)N[C@@H]43)c3nnc(C)n3-c3sc(C)c(C)c32)cc1 [MR169] was run?
Answer: Its kinact/KI is 37000 M⁻¹ s⁻¹.
